Structures can show the parent of a compound that is named as a salt.

The target in data set [1] is T1, NHE1 (Homo sapiens, UniProt P19634).
T1 construct: expressed in transfected cells
Nature of the data set: NHE inhibition FLIPR test (intracellular pH recovery, BCECF). Format: cell-based. The note with it: transfected LAP-1 cell line expressing NHE1 subtype, pHi recovery after acidification. Here is the method: The NHE inhibitory activities (IC50 values) of the compounds according to the invention were determined by a FLIPR test.
The test is performed in the FLIPR (Fluorescent Imaging Plate Reader) equipped with clear-bottomed and black-walled 96-well microtitration plates.
The growth medium for the transfected cells (Iscove+10% foetal calf serum) also comprises G418 as selection antibiotic to ensure the presence of transfected sequences.
The actual test begins by eliminating the growth medium and adding 100 μl of loading buffer per well (5 μM of BCECF-AM [2′,7′-bis(2-carboxyethyl)-5-(6)-carboxyfluoresceine acetoxymethyl ester] in 20 mM of NH4Cl, 115 mM of choline chloride, 1 mM of CaCl2, 5 mM of KCl, 20 mM of HEPES and 5 mM of glucose; pH 7.4 (adjusted with KOH). The cells are then incubated for 20 minutes at 37° C. This incubation results in the loading of the fluorescent dye into the cells, the fluorescence intensity of which depends on the pHi, and on the NH4Cl, which results in a slight basification of the cells.
The precursor BCECF-AM, a non-fluorescent dye, is, as an ester, capable of crossing the membrane. The actual dye, which is incapable of crossing the membrane, is released inside the cell by esterases.
After this 20-minute incubation, the loading buffer, which comprises NH4Cl and free BCECF-AM, is removed by washing three times in the cell washing device (Tecan Columbus), each wash being performed with 400 μl of washing buffer (133.8 mM of choline chloride, 4.7 mM of KCl, 1.25 mM of MgCl2,1.25 mM of CaCl2, 0.97 mM of K2HPO4, 0.23 mM of KH2PO4, 5 mM of HEPES and 5 mM of glucose; pH 7.4 (adjusted with KOH)). The residual volume remaining in the wells is 90 μl (possibly between 50 and 125 μl). This washing step removes the free BCECF-AM and results in an intracellular acidification (pHi of 6.3–6.4) due to the removal of the external ammonium ions.
As the equilibrium of the intracellular ammonium with the aqueous ammonia and the protons, by removal of the extracellular ammonium and by the subsequent immediate crossing of the aqueous ammonia across the cell membrane, is disrupted, the washing process results in intracellular protons remaining, which is the cause of the intracellular acidification. This acidification can result finally in the death of the cells if it lasts long enough. It is important here for the washing buffer to be free of sodium (<1 mM), otherwise the extracellular sodium ions would result in an immediate increase in the pHi on account of the activity of the cloned NHE isoforms. It is also important for all the buffers used (loading buffer, washing buffer and regeneration buffer) not to contain any HCO3^− ions, otherwise the presence of bicarbonate would result in the activation of bicarbonate-dependent systems that disrupt the pHi regulation, which systems are contained in the LAP-1 parental cell line.
The microtiter plates containing acidified cells are then transferred (up to 20 minutes after the acidification) to the FLIPR. In the FLIPR, the intracellular fluorescent dye is activated with light of a wavelength of 488 nm, which is generated by an argon laser, and the measuring parameters (laser power, illumination time and diaphragm of the […] camera integrated into the FLIPR) are chosen such that the average value of the fluorescent signal per well is between 30,000 and 35,000 relative fluorescence units.
The actual measurement in the FLIPR starts with a photograph being taken by the CCD camera every two seconds under software control. After 10 seconds, the increase in the intracellular pH is initiated by adding 90 μl. of regeneration buffer (133.8 mM of NaCl, 4.7 mM of KCl, 1.25 mM of MgCl2, 1.25 mM of CaCl2, 0.97 mM of K2HPO4, 0.23 mM of KH2PO4, 10 mM of HEPES and 5 mM of glucose; pH 7.4 (adjusted with NaOH)) using a 96-well pipette device incorporated into the FLIPR. Some wells, to which is added pure regeneration buffer, serve as positive controls (100% NHE activity). […]

T1 sequence (P19634 whole entry, species assumed): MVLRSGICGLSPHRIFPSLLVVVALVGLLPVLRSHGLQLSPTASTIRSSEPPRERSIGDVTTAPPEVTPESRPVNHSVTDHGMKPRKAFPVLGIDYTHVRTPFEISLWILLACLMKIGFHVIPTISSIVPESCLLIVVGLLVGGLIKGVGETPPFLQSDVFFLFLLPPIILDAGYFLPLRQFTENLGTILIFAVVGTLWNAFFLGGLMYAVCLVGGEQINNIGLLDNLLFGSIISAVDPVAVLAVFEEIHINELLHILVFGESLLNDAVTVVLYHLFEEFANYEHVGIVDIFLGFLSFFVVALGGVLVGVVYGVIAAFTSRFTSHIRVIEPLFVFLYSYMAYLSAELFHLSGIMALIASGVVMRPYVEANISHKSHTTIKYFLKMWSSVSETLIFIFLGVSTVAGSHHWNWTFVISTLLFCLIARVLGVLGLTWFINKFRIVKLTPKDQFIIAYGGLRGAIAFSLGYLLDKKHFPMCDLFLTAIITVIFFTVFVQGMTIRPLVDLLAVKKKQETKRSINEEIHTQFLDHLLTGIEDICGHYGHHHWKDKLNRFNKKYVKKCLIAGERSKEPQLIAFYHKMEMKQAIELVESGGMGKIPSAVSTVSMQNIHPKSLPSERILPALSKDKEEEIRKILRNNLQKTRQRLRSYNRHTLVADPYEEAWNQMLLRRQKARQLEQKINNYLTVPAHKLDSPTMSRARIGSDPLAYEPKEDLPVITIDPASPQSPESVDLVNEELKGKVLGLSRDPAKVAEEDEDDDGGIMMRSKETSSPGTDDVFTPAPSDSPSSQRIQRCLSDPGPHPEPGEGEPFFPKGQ

A word on the melting point: it is the temperature, or range, at which the solid turns liquid. Regarding `CS(=O)(=O)c1ccc(-n2cc(C(=O)NC(=N)N)c3cccnc32)cc1` (as salt: hydrochloride) [Example 6, N-[1-(4-(Methylsulfonyl)phenyl)-1H-pyrrolo[2,3-b]pyridine-3-carbonyl]guanidine hydrochloride], the melting point was 266 to 270 °C.

The IC50 is the concentration needed to halve the response being measured. As to `N=C(N)NC(=O)c1cn(-c2ccnc3ccccc23)c2ncccc12` [Example 1, N-[1-(Quinolin-4-yl)-1H-pyrrolo[2,3-b]pyridine-3-carbonyl]guanidine], the melting point amounted to 164 °C. The IC50 in data set [1] amounted to 3 nM.

As for `N=C(N)NC(=O)c1cn(-c2ccncc2)c2ncccc12` [Example 2, N-[1-(Pyridin-4-yl)-1H-pyrrolo[2,3-b]pyridine-3-carbonyl]guanidine], the melting point was 210 °C. The same molecule came in with an IC50 in data set [1] of 10 nM. Molecule `N=C(N)NC(=O)c1cn(-c2nccc3ccccc23)c2ncccc12` [Example 3, N-[1-(Isoquinolin-1-yl)-1H-pyrrolo[2,3-b]pyridine-3-carbonyl]guanidine] registered an IC50 in data set [1] of 15 nM.

`N=C(N)NC(=O)c1cn(-c2ccc3ccccc3n2)c2ncccc12` [Example 4, N-[1-(Quinolin-2-yl)-1H-pyrrolo[2,3-b]pyridine-3-carbonyl]guanidine] yielded an IC50 in data set [1] of 6240 nM. In turn, `Cl.N=C(N)NC(=O)c1cn(-c2ccccn2)c2ncccc12` [Example 5, N-[1-(Pyridin-2-yl)-1H-pyrrolo[2,3-b]pyridine-3-carbonyl]guanidine hydrochloride] yielded a melting point of 205 to 207 °C. In data set [1], this molecule registered an IC50 of 18 nM. Consider `CS(=O)(=O)c1ccc(-n2cc(C(=O)NC(=N)N)c3cccnc32)cc1` [Example 6, N-[1-(4-(Methylsulfonyl)phenyl)-1H-pyrrolo[2,3-b]pyridine-3-carbonyl]guanidine hydrochloride], for which the IC50 in data set [1] came out at 3760 nM.

In the case of `CN(C)c1cccc(-n2cc(C(=O)NC(=N)N)c3cccnc32)c1` [Example 7, N-[1-(3-(Dimethylamino)phenyl)-1H-pyrrolo[2,3-b]pyridine-3-carbonyl]guanidine], the IC50 in data set [1] is 3 nM. Turning to `Cc1cc(-n2cc(C(=O)NC(=N)N)c3cccnc32)c2ccccc2n1` [Example 8, N-[1-(2-Methylquinolin-4-yl)-1H-pyrrolo[2,3-b]pyridine-3-carbonyl]guanidine hydrochloride], it took 26 nM to reach half-maximal inhibition in data set [1] (IC50). Regarding `Cn1ccc2c(-n3cc(C(=O)NC(=N)N)c4cccnc43)ncnc21` [Example 9, N-[1-(7-Methyl-7H-pyrrolo[2,3-d]pyrimidin-4-yl)-1H-pyrrolo[2,3-b]pyridine-3-carbonyl]-guanidine], the melting point was above 260 °C. In data set [1], this molecule yielded an IC50 of 37 nM. Molecule `N=C(N)NC(=O)c1cn(-c2cc(O)nc3ccccc23)c2ncccc12` [Example 10, N-[1-(2-Hydroxy-quinolin-4-yl)-1H-pyrrolo[2,3-b]pyridine-3-carbonyl]-guanidine] had an IC50 in data set [1] of 660 nM.

For the origin of these results see patent publication US7230007B2, “Derivatives of 3-(Guanidinocarbonyl) heterocycle, methods of preparation and intermediates thereof, their use as medicaments, and pharmaceutical compositions therefrom” (Sanofi-Aventis Deutschland GmbH, priority 2003, dated 2007).
